Test results reported in PubChem BioAssay AID248 (DTP/NCI, 2004).
“And” between values parts separate entries of the source, which are not always exact repeats. Equal values may be shown once. Toxic doses and inconclusive results are not listed. No stated cut-off is given here; in the data, active means T/C of 150% or more; inactive means T/C below 125%.

Tested on: L1210 leukemia ip in BDF1 mice, survival T/C
Assay: NCI In Vivo Anticancer Drug Screen. Data for tumor model L1210 Leukemia (intraperitoneal) in B6D2F1 (BDF1) mice
Details: endpoint: mean survival time, higher = longer survival
How it was run: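 Value reflects the ratio of survival in compound-treated mice to survival in vehicle-treated controls, with both groups carrying the same transplanted tumor.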

[1] = dose: 100.0 mg/kg/injection, schedule: Q04DX003 (ip), vehicle: saline with Tween-80
[2] = dose: 200.0 mg/kg/injection, schedule: Q04DX003 (ip), vehicle: saline with Tween-80
[3] = dose: 400.0 mg/kg/injection, schedule: Q04DX003 (ip), vehicle: saline with Tween-80
[4] = dose: 100.0 mg/kg/injection, schedule: Q01DX001 (ip), vehicle: saline
[5] = dose: 200.0 mg/kg/injection, schedule: Q01DX001 (ip), vehicle: saline
[6] = dose: 400.0 mg/kg/injection, schedule: Q01DX001 (ip), vehicle: saline
[7] = dose: 100.0 mg/kg/injection, schedule: Q01DX001 (ip), vehicle: carboxymethylcellulose (CMC)
[8] = dose: 200.0 mg/kg/injection, schedule: Q01DX001 (ip), vehicle: carboxymethylcellulose (CMC)
[9] = dose: 400.0 mg/kg/injection, schedule: Q01DX001 (ip), vehicle: carboxymethylcellulose (CMC)
[10] = dose: 100.0 mg/kg/injection, schedule: Q01DX009 (ip), vehicle: saline with Tween-80
[11] = dose: 6.25 mg/kg/injection, schedule: Q01DX009 (ip), vehicle: saline
[12] = dose: 12.5 mg/kg/injection, schedule: Q01DX009 (ip), vehicle: saline
[13] = dose: 25.0 mg/kg/injection, schedule: Q01DX009 (ip), vehicle: saline
[14] = dose: 50.0 mg/kg/injection, schedule: Q01DX001 (ip), vehicle: saline
[15] = dose: 100.0 mg/kg/injection, schedule: Q01DX009 (ip), vehicle: saline
[16] = dose: 100.0 mg/kg/injection, schedule: Q04DX003 (ip), vehicle: saline
[17] = dose: 200.0 mg/kg/injection, schedule: Q04DX003 (ip), vehicle: saline
[18] = dose: 100.0 mg/kg/injection, schedule: Q04DX003 (ip), vehicle: Klucel (hydroxypropylcellulose) (HPC)
[19] = dose: 200.0 mg/kg/injection, schedule: Q04DX003 (ip), vehicle: Klucel (hydroxypropylcellulose) (HPC)

Measured: T/C

O=c1cc[nH]c2n[nH]nc12
inactive: dose: 100.0 mg/kg/injection, schedule: Q01DX001 (ip), vehicle: Klucel (hydroxypropylcellulose) (HPC) 94 % of control | dose: 200.0 mg/kg/injection, schedule: Q01DX001 (ip), vehicle: Klucel (hydroxypropylcellulose) (HPC) 94 % of control | dose: 400.0 mg/kg/injection, schedule: Q01DX001 (ip), vehicle: Klucel (hydroxypropylcellulose) (HPC) 96 % of control

COc1cc(C(C)=O)ccc1O
inactive: dose: 100.0 mg/kg/injection, schedule: Q04DX002 (ip), vehicle: Klucel (hydroxypropylcellulose) (HPC) 99 % of control | dose: 200.0 mg/kg/injection, schedule: Q04DX002 (ip), vehicle: Klucel (hydroxypropylcellulose) (HPC) 89 % of control | dose: 400.0 mg/kg/injection, schedule: Q04DX002 (ip), vehicle: Klucel (hydroxypropylcellulose) (HPC) 89 % of control

CCOC(=O)CCCN(C(=O)c1ccccc1)c1scc(-c2ccccc2)c1C(=O)OCC
inactive: dose: 50.0 mg/kg/injection, schedule: Q04DX003 (ip), vehicle: saline with Tween-80 92 % of control | [1] 95 % of control | [2] 94 % of control | [3] 103 % of control

CCOC(=O)C(CC1CC(=O)Nc2ccccc21)C(=O)OCC (stereo not drawn)
inactive: [4] 95 % of control | [5] 97 % of control | [6] 101 % of control

CC1([N+](=O)[O-])COP(=O)(O)OC1 (stereo not drawn) (tested in a mixture with another compound)
inactive: [7] 109 % of control | [4] 101 % of control [middle of 4 runs] | [8] 109 % of control | [5] 102 % of control [middle of 4 runs] | [9] 107 % of control | [6] 101 % of control and 102 % of control and 103 % of control

CCOC(OCC)C(=O)C(C#N)c1ccc(Cl)c(Cl)c1 (stereo not drawn)
inactive: dose: 5.0 mg/kg/injection, schedule: Q01DX001 (ip), vehicle: saline 109 % of control | dose: 10.0 mg/kg/injection, schedule: Q01DX001 (ip), vehicle: saline 100 % of control | dose: 20.0 mg/kg/injection, schedule: Q01DX001 (ip), vehicle: saline 105 % of control | dose: 40.0 mg/kg/injection, schedule: Q01DX001 (ip), vehicle: saline 97 % of control | dose: 80.0 mg/kg/injection, schedule: Q01DX001 (ip), vehicle: saline 97 % of control

CSc1ccc(NC(=O)OCC2CC3C=CC2C3)cc1 (stereo not drawn)
inactive: [10] 96 % of control and 92 % of control | dose: 100.0 mg/kg/injection, schedule: Q04DX002 (ip), vehicle: saline with Tween-80 89 % of control | [1] 95 % of control | dose: 200.0 mg/kg/injection, schedule: Q01DX009 (ip), vehicle: saline with Tween-80 94 % of control and 110 % of control | dose: 200.0 mg/kg/injection, schedule: Q04DX002 (ip), vehicle: saline with Tween-80 89 % of control | [2] 93 % of control | dose: 400.0 mg/kg/injection, schedule: Q01DX009 (ip), vehicle: saline with Tween-80 94 % of control and 100 % of control | dose: 400.0 mg/kg/injection, schedule: Q04DX002 (ip), vehicle: saline with Tween-80 111 % of control | [3] 98 % of control

Cc1ccc([N+](=O)[O-])cc1NC(=O)NCc1ccccc1
inactive: dose: 100.0 mg/kg/injection, schedule: Q01DX009 (ip), vehicle: Klucel (hydroxypropylcellulose) (HPC) 89 % of control | dose: 200.0 mg/kg/injection, schedule: Q01DX009 (ip), vehicle: Klucel (hydroxypropylcellulose) (HPC) 89 % of control | dose: 400.0 mg/kg/injection, schedule: Q01DX009 (ip), vehicle: Klucel (hydroxypropylcellulose) (HPC) 97 % of control

COc1ccc(SC(=O)N(C)C)cc1
inactive: dose: 100.0 mg/kg/injection, schedule: Q01DX001 (ip), vehicle: saline with Tween-80 98 % of control | dose: 200.0 mg/kg/injection, schedule: Q01DX001 (ip), vehicle: saline with Tween-80 94 % of control | dose: 400.0 mg/kg/injection, schedule: Q01DX001 (ip), vehicle: saline with Tween-80 98 % of control

CN(C)c1ncnc2c1ncn2C1OC(CO)C(N)C1O (stereo not drawn)
inactive: [11] 111 % of control | [12] 111 % of control | [13] 117 % of control | [14] 109 % of control | [4] 109 % of control | [5] 109 % of control | [6] 115 % of control

O=C(NC(CSSCC(NC(=O)OCc1ccccc1)C(=O)O)C(=O)O)OCc1ccccc1 (stereo not drawn)
inactive: dose: 85.0 mg/kg/injection, schedule: Q01DX009 (ip), vehicle: other 98 % of control | [15] 94 % of control and 98 % of control | dose: 100.0 mg/kg/injection, schedule: Q04DX003 (ip), vehicle: other 98 % of control | [16] 90 % of control | dose: 135.0 mg/kg/injection, schedule: Q01DX009 (ip), vehicle: other 88 % of control | dose: 200.0 mg/kg/injection, schedule: Q01DX009 (ip), vehicle: other 97 % of control | dose: 200.0 mg/kg/injection, schedule: Q01DX009 (ip), vehicle: saline 118 % of control and 92 % of control | dose: 200.0 mg/kg/injection, schedule: Q04DX003 (ip), vehicle: other 88 % of control | [17] 102 % of control | dose: 300.0 mg/kg/injection, schedule: Q01DX009 (ip), vehicle: other 99 % of control | dose: 400.0 mg/kg/injection, schedule: Q01DX009 (ip), vehicle: saline 94 % of control and 104 % of control | dose: 400.0 mg/kg/injection, schedule: Q04DX003 (ip), vehicle: other 96 % of control | dose: 400.0 mg/kg/injection, schedule: Q04DX003 (ip), vehicle: saline 101 % of control

COc1cc(N)c2ncccc2c1[N+](=O)[O-]
inactive: [14] 112 % of control | [4] 106 % of control | [5] 106 % of control | [6] 104 % of control

CN1CC(COC(=O)CCc2ccc(N(CCCl)CCCl)cc2)C=C2c3cccc4[nH]cc(c34)C[C@H]21 (stereo partly drawn)
inactive: dose: 3.12 mg/kg/injection, schedule: Q01DX009 (ip), vehicle: saline 104 % of control | [11] 108 % of control | [12] 110 % of control and 114 % of control | [13] 117 % of control | dose: 25.0 mg/kg/injection, schedule: Q04DX003 (ip), vehicle: saline 93 % of control and 107 % of control | dose: 50.0 mg/kg/injection, schedule: Q01DX009 (ip), vehicle: saline 117 % of control | dose: 50.0 mg/kg/injection, schedule: Q04DX003 (ip), vehicle: saline 109 % of control and 117 % of control | [15] 91 % of control | [16] 112 % of control | [17] 124 % of control

N#CC1(C#N)C2C=CC(C2)C1(C#N)C#N
inactive: dose: 6.25 mg/kg/injection, schedule: Q01DX009 (ip), vehicle: saline with Tween-80 97 % of control | dose: 12.5 mg/kg/injection, schedule: Q01DX009 (ip), vehicle: saline with Tween-80 97 % of control

O=C(CC(c1ccccc1)C(C(CC(=O)c1ccccc1)c1ccccc1)[N+](=O)[O-])c1ccccc1 (stereo not drawn)
inactive: [7] 92 % of control | [18] 87 % of control | [8] 95 % of control | [19] 89 % of control | [9] 92 % of control | dose: 400.0 mg/kg/injection, schedule: Q04DX003 (ip), vehicle: Klucel (hydroxypropylcellulose) (HPC) 86 % of control

CSCCC(C#N)(CCN(C)C)c1ccccc1 (stereo not drawn)
inactive: dose: 25.0 mg/kg/injection, schedule: Q01DX009 (ip), vehicle: other 102 % of control | dose: 50.0 mg/kg/injection, schedule: Q01DX009 (ip), vehicle: other 98 % of control | dose: 100.0 mg/kg/injection, schedule: Q01DX009 (ip), vehicle: other 91 % of control | [10] 97 % of control | [18] 96 % of control | [19] 98 % of control

O=Cc1nccc2c1[nH]c1ccccc12
inactive: dose: 25.0 mg/kg/injection, schedule: Q01DX009 (ip), vehicle: saline with Tween-80 96 % of control | dose: 50.0 mg/kg/injection, schedule: Q01DX009 (ip), vehicle: saline with Tween-80 97 % of control | [10] 86 % of control and 90 % of control

O=CNc1cccc2c1-c1ccccc1C2=O
inactive: [7] 96 % of control | [8] 91 % of control | [9] 99 % of control
